The text below walks through data of US6521790B2, “Alkynyl amides and their therapeutic applications” (Abbott Laboratories, priority 2000, dated 2003).

Assay [1] concerns electrical shock induced seizures. Put plainly: Maximum Electrical Shock Method (MES). The conditions noted are these: oral, male CD1 mice. Format: in vivo. The text has this: Male CD1 mice (Charles River) weighing from 25-35 g were used. Mice were pretreated orally with compounds of the present invention prior to electrical stimulation. Mice were challenge by pulsed electrical stimulation (50 mA, 0.4 s duration, pulse width 0.5 ms, 60 pulses/sec) via corneal electrodes to induce seizure. The stimulation was delivered with an ECT Unit (Ugo Basile #7801). The electrodes of the unit were coated with electrocardiogram electrolyte (Signa Creme, Parker Labs #1708) to ensure good contact with the corneas. Mice were observed post-stimulation for the onset of seizures and death. […] Animals which gave a positive seizure response were observed an additional 30 seconds for death. […] The percent protection from seizures was calculated by dividing the number of protected mice by the total number of mice for the group. The percentage of mice protected from electrical shock induced seizures at doses of 600, 1200, 1800 and 2400 μmole/kg is illustrated in Table 3 for Example 1 and Example 6. The corresponding acid, (2R)-2-propyl-4-hexynoic acid, was also tested for comparison.

The test system of assay [2] is pentylenetetrazole (PTZ) induced seizures. Description: Latency to and protection against PTZ induced seizures in mice. The conditions noted are these: compound 1400 μmol/kg intra-peritoneally; for Time to Seizure: average time for PTZ induced seizure, male CD1 mice, PTZ 85 mg/kg s.c., observed 15 minutes; for Number of Mice Protected: number of mice out of ten that did not seize within 15 minutes after PTZ 85 mg/kg s.c. Format: in vivo. How it is done:
Male CD1 mice (Charles River, Portage, Mich.) weighing 25-35 g were used and during the experiment the mice were housed individually in clear polycarbonate cages for observation. For each experiment, ten mice were each pretreated intra-peritoneally with a compound of the present invention (1400 μmol/kg) prior to pentylenetetrazole (PTZ) (Sigma, St. Louis, Mo.) injection. Seizures were induced by the subcutaneous injection of PTZ (85 mg/kg) just below the nape of the neck. […] The data in Table 1 represents the average time for PTZ induced seizure. […] Control animals were not pretreated with a compound of the present invention but were injected with PTZ (85 mg/kg) subcutaneously.

The conditions of assay [3]: one study, compared with valproic acid; cited from earlier work.
The conditions of assay [4]: reported in literature (Abbott, Tang, Palaty 1997); cited from earlier work.

In the case of `CC#CC[C@@H](CCC)C(=O)NCC(N)=O` [Example 1, (2R)-N-(2-amino-2-oxoethyl)-2-propyl-4-hexynamide], the “Percentage of Mice Protected Against Electrical Shock Induced Seizures” value (from here on “Percentage”) in assay [1] (dose 600 μmole/kg) is given as 0%; in assay [1] (dose 1200 μmole/kg) it was 70%; in assay [1] (dose 1800 μmole/kg), 90%; in assay [1] (dose 2400 μmole/kg), 100%. Moreover, in assay [2], the “Time to Seizure” value is 675 s. Moreover, the “Number of Mice Protected” value in assay [2] came out at 5.
Turning to `CC#CCC(CCC)C(=O)O` (stereo not shown) [2-propyl-4-hexynoic acid], in assay [3], the “Antiepileptic effect and duration of activity” value is recorded as “effective antiepileptic with a longer duration of activity”.
Regarding `CC#CC[C@@H](CCC)C(=O)N[C@@H](C)C(N)=O` [Example 4, (2R)-N-[(1S)-2-amino-1-methyl-2-oxoethyl]-2-propyl-4-hexynamide], in assay [2], the “Time to Seizure” value was found to be 610 s and the “Number of Mice Protected” value stood at 6.
Consider `CC#CC[C@@H](CCC)C(=O)N[C@H](C(N)=O)C(C)C` [Example 2, (2R)-N-[(1S)-1-(aminocarbonyl)-2-methylpropyl]-2-propyl-4-hexynamide], for which, in assay [2], the “Time to Seizure” value was determined as 305 s and the “Number of Mice Protected” value is 1.
The matching figures for `CC#CC[C@@H](CCC)C(=O)N[C@@H](CC(C)C)C(N)=O` [Example 3, (2R)-N-[(1S)-1-(aminocarbonyl)-3-methylbutyl]-2-propyl-4-hexynamide]: 575 s and 4.
The like results for `CC#CC[C@@H](CCC)C(=O)N[C@H](C)C(N)=O` [Example 5, (2R)-N-[(1R)-2-amino-1-methyl-2-oxoethyl]-2-propyl-4-hexynamide] were, in that order, 525 s and 2.
As to `CC#CC[C@@H](CCC)C(=O)O` [(2R)-2-propyl-4-hexynoic acid, reference compound], the “Percentage” value is listed as 0% in assay [1] (dose 600 μmole/kg), 0% in assay [1] (dose 1200 μmole/kg), 0% in assay [1] (dose 1800 μmole/kg) and 20% in assay [1] (dose 2400 μmole/kg).
For `CCCC(F)(CCC)C(=O)O` [2-fluoro-2-propylpentanoic acid], in assay [4], the “Anticonvulsant potency relative to VPA” value is “less potent than VPA”.
Regarding `CC#CC[C@@H](CCC)C(N)=O` [Example 6, (2R)-2-propyl-4-hexynamide], the results for the “Percentage” value in assay [1] (dose 600 μmole/kg), in assay [1] (dose 1200 μmole/kg) and in assay [1] (dose 1800 μmole/kg) were 0%, 20% and 90%, respectively. The “Time to Seizure” value in assay [2] is recorded as “No Seizures”. Moreover, the “Number of Mice Protected” value in assay [2] was 10.
